# How the values were obtained:
# [1] = tested on: CHEAL (Lambsquarters, Common); assay: Postemergence herbicidal evaluation; type: in vivo, Chenopodium album; conditions: postemergence
# In short: (§1)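 Rate range approx. 0.0156–0.500 kg/ha. Foliar application at 40 psi to ~2-week seedlings; surfactant 0.5% TWEEN 20 in 50/50 acetone/water. Evaluation 4–5 wk post-treatment by 0–9 visual injury score, means of replicate tests.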
# CYPSE (Flatsedge) [2] = assay: Postemergence weed control under flooded paddy conditions; type: in vivo, Cyperus serotinus; conditions: postemergence weeds, 3-4 weeks after treatment
# In short: (§2)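 Flood-water application, about 0.0313–0.500 kg/ha a.i. in aqueous/acetone 50/50 v/v; water depth 1.5–3 cm throughout. Weeds 3–5 cm, rice 1.5–2.5 leaf. Greenhouse; 0–9 visual rating vs control at 3–4 wk.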
# ORYSAT (Rice, Tebonnet) [3] = assay: Postemergence herbicidal evaluation; type: in vivo, Oryza sativa, (L.) Tebonnet; conditions: postemergence
# In short: as §1
# ORYSAT (Rice, Tebonnet) [4] = assay: Preemergence herbicidal evaluation; type: in vivo, Oryza sativa, (L.) Tebonnet; conditions: rated 4-5 weeks after treatment
# In short: (§3)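 Visual 0-9 rating vs control (stand, vigor, malformation, size, chlorosis, overall appearance), scored 4-5 wk after spraying. Seeded soil cups were treated preemergence with compound in aqueous acetone, ~0.0156-0.500 kg/ha equivalent.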
# CYPSE (Flatsedge) [5] = assay: Preemergence weed control under flooded paddy conditions; type: in vivo, Cyperus serotinus; conditions: rated 3-4 weeks after treatment
# In short: (§4)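 Ratings on a 0-9 visual scale cover stand, vigor, malformation, size, chlorosis and overall appearance relative to a control, taken three to four weeks post-treatment. Application was into flood water over freshly sown silt loam at roughly 0.0313 to 0.500 kg/ha.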
# MOOVA (Monochoria) = assay: as above; type: in vivo, Monochoria vaginalis; conditions: rated 3-4 weeks after treatment
# In short: as §4
# AMBEL (Ragweed, Common) = assay: Preemergence herbicidal evaluation; type: in vivo, Ambrosia artemisifolia; conditions: rated 4-5 weeks after treatment
# In short: as §3
# [6] = tested on: GLXMAW (Soybean, Williams); assay: Preemergence herbicidal evaluation; type: in vivo, Glycine max, (L.) Merr. cv Williams; conditions: rated 4-5 weeks after treatment
# In short: as §3
# SETVI (Foxtail, Green) = assay: Preemergence herbicidal evaluation; type: in vivo, Setaria viridis; conditions: rated 4-5 weeks after treatment
# In short: as §3
# CYPIR (Rice Flatsedge) = assay: Postemergence weed control under flooded paddy conditions; type: in vivo, Cyperus iria; conditions: postemergence weeds, 3-4 weeks after treatment
# In short: as §2
# GALAP (Galium) = assay: Postemergence herbicidal evaluation; type: in vivo, Galium aparine; conditions: postemergence
# In short: as §1
# ZEAMX (Corn, Field) = assay: Postemergence herbicidal evaluation; type: in vivo, Zea mays; conditions: postemergence
# In short: as §1
# CASOB (Sicklepod) = assay: Postemergence herbicidal evaluation; type: in vivo, Cassia obtusifolia; conditions: postemergence
# In short: as §1
# [7] = tested on: SAGPY (Arrowhead (Pygmaea)); assay: Postemergence weed control under flooded paddy conditions; type: in vivo, Sagittaria pygmaea; conditions: postemergence weeds, 3-4 weeks after treatment
# In short: as §2
compound,measurement,setting,value
"CCOC(=O)CN1C(=O)CSC1=Nc1cc(-n2c(=O)cc(C(F)(F)F)n(C)c2=O)c(F)cc1Cl [Compound 8, Ethyl 2-{{2-chloro-5-[3,6-dihydro-3-methyl-2,6-dioxo-4-(trifluoromethyl)-1(2H)pyrimidinyl]-4-fluorophenyl}imino}-4-oxo-3-thiazolidineacetate]",CHEAL herbicidal rating,[1]; rate 0.0157 kg/ha,5.0
same,CHEAL herbicidal rating,[1]; rate 0.0313 kg/ha,7.5
same,CHEAL herbicidal rating,[1]; rate 0.0625 kg/ha,8.4
same,CHEAL herbicidal rating,[1]; rate 0.1250 kg/ha,9.0
same,Herbicidal rating CYPSE,CYPSE (Flatsedge) [2]; rate 0.0313 kg/ha,0.0
same,Herbicidal rating CYPSE,CYPSE (Flatsedge) [2]; rate 0.0625 kg/ha,0.0
same,Herbicidal rating CYPSE,CYPSE (Flatsedge) [2]; rate 0.1250 kg/ha,0.0
same,Herbicidal rating CYPSE,CYPSE (Flatsedge) [2]; rate 0.2500 kg/ha,0.0
same,ORYSAT herbicidal rating,"ORYSAT (Rice, Tebonnet) [3]; rate 0.0157 kg/ha",2.0
same,ORYSAT herbicidal rating,"ORYSAT (Rice, Tebonnet) [3]; rate 0.0313 kg/ha",2.7
same,ORYSAT herbicidal rating,"ORYSAT (Rice, Tebonnet) [3]; rate 0.0625 kg/ha",4.1
same,ORYSAT herbicidal rating,"ORYSAT (Rice, Tebonnet) [3]; rate 0.1250 kg/ha",5.3
same,ORYSAT preemergence herbicidal rating,"ORYSAT (Rice, Tebonnet) [4]; rate 0.0156 kg/ha",0.6
same,ORYSAT preemergence herbicidal rating,"ORYSAT (Rice, Tebonnet) [4]; rate 0.0313 kg/ha",0.8
same,ORYSAT preemergence herbicidal rating,"ORYSAT (Rice, Tebonnet) [4]; rate 0.0625 kg/ha",2.8
same,ORYSAT preemergence herbicidal rating,"ORYSAT (Rice, Tebonnet) [4]; rate 0.1250 kg/ha",5.4
same,ORYSAT preemergence herbicidal rating,"ORYSAT (Rice, Tebonnet) [4]; rate 0.2500 kg/ha",7.1
same,ORYSAT preemergence herbicidal rating,"ORYSAT (Rice, Tebonnet) [4]; rate 0.5000 kg/ha",8.5
same,Herbicidal rating CYPSE,CYPSE (Flatsedge) [5]; 0.0313 kg/ha,0.0
same,Herbicidal rating CYPSE,CYPSE (Flatsedge) [5]; 0.0625 kg/ha,0.0
same,Herbicidal rating CYPSE,CYPSE (Flatsedge) [5]; 0.1250 kg/ha,0.0
same,Herbicidal rating CYPSE,CYPSE (Flatsedge) [5]; 0.2500 kg/ha,0.0
same,Herbicidal rating MOOVA,MOOVA (Monochoria); 0.0313 kg/ha,9.0
same,Herbicidal rating MOOVA,MOOVA (Monochoria); 0.0625 kg/ha,9.0
same,Herbicidal rating MOOVA,MOOVA (Monochoria); 0.1250 kg/ha,9.0
same,Herbicidal rating MOOVA,MOOVA (Monochoria); 0.2500 kg/ha,9.0
same,AMBEL preemergence herbicidal rating,"AMBEL (Ragweed, Common); rate 0.0156 kg/ha",1.6
same,AMBEL preemergence herbicidal rating,"AMBEL (Ragweed, Common); rate 0.0313 kg/ha",4.5
same,AMBEL preemergence herbicidal rating,"AMBEL (Ragweed, Common); rate 0.0625 kg/ha",5.7
same,AMBEL preemergence herbicidal rating,"AMBEL (Ragweed, Common); rate 0.1250 kg/ha",8.5
same,AMBEL preemergence herbicidal rating,"AMBEL (Ragweed, Common); rate 0.2500 kg/ha",8.9
same,AMBEL preemergence herbicidal rating,"AMBEL (Ragweed, Common); rate 0.5000 kg/ha",9.0
same,GLXMAW preemergence herbicidal rating,[6]; rate 0.0156 kg/ha,0.2
same,GLXMAW preemergence herbicidal rating,[6]; rate 0.0313 kg/ha,1.1
same,GLXMAW preemergence herbicidal rating,[6]; rate 0.0625 kg/ha,3.2
same,GLXMAW preemergence herbicidal rating,[6]; rate 0.1250 kg/ha,5.9
same,GLXMAW preemergence herbicidal rating,[6]; rate 0.2500 kg/ha,7.9
same,GLXMAW preemergence herbicidal rating,[6]; rate 0.5000 kg/ha,8.8
same,SETVI preemergence herbicidal rating,"SETVI (Foxtail, Green); rate 0.0156 kg/ha",2.8
same,SETVI preemergence herbicidal rating,"SETVI (Foxtail, Green); rate 0.0313 kg/ha",6.1
same,SETVI preemergence herbicidal rating,"SETVI (Foxtail, Green); rate 0.0625 kg/ha",8.2
same,SETVI preemergence herbicidal rating,"SETVI (Foxtail, Green); rate 0.1250 kg/ha",9.0
same,SETVI preemergence herbicidal rating,"SETVI (Foxtail, Green); rate 0.2500 kg/ha",9.0
same,SETVI preemergence herbicidal rating,"SETVI (Foxtail, Green); rate 0.5000 kg/ha",9.0
same,Herbicidal rating CYPIR,CYPIR (Rice Flatsedge); rate 0.0313 kg/ha,0.0
same,Herbicidal rating CYPIR,CYPIR (Rice Flatsedge); rate 0.0625 kg/ha,0.0
same,Herbicidal rating CYPIR,CYPIR (Rice Flatsedge); rate 0.1250 kg/ha,0.0
same,Herbicidal rating CYPIR,CYPIR (Rice Flatsedge); rate 0.2500 kg/ha,4.0
same,GALAP herbicidal rating,GALAP (Galium); rate 0.0157 kg/ha,3.0
same,GALAP herbicidal rating,GALAP (Galium); rate 0.0313 kg/ha,4.5
same,GALAP herbicidal rating,GALAP (Galium); rate 0.0625 kg/ha,6.3
same,GALAP herbicidal rating,GALAP (Galium); rate 0.1250 kg/ha,6.8
same,ZEAMX herbicidal rating,"ZEAMX (Corn, Field); rate 0.0157 kg/ha",7.5
same,ZEAMX herbicidal rating,"ZEAMX (Corn, Field); rate 0.0313 kg/ha",7.3
same,ZEAMX herbicidal rating,"ZEAMX (Corn, Field); rate 0.0625 kg/ha",7.4
same,ZEAMX herbicidal rating,"ZEAMX (Corn, Field); rate 0.1250 kg/ha",7.6
same,CASOB herbicidal rating,CASOB (Sicklepod); rate 0.0157 kg/ha,0.0
same,CASOB herbicidal rating,CASOB (Sicklepod); rate 0.0313 kg/ha,1.8
same,CASOB herbicidal rating,CASOB (Sicklepod); rate 0.0625 kg/ha,3.0
same,CASOB herbicidal rating,CASOB (Sicklepod); rate 0.1250 kg/ha,3.0
same,Herbicidal rating SAGPY,[7]; rate 0.0313 kg/ha,0.0
same,Herbicidal rating SAGPY,[7]; rate 0.0625 kg/ha,0.0
same,Herbicidal rating SAGPY,[7]; rate 0.1250 kg/ha,0.0
same,Herbicidal rating SAGPY,[7]; rate 0.2500 kg/ha,0.0
